Measurements taken from PMC7305236, “The atypical chemokine receptor ACKR3/CXCR7 is a broad-spectrum scavenger for opioid peptides” (Nature Communications, 2020).
Where two headings read alike, the source gives them in different places. Starred links: 1 amine or outer side, 2 acyl side, 3 side chain; linkers in the order of their positions; H or OH if unused. Non-standard residues stand in square brackets, D forms with d. Residues, ends and D or L forms follow the SMILES beside them. X1 = N[C@@H](Cc1ccccc1)CN(CC(=O)[*:2])[*:1]

What was measured:
Set-up in all cases: dose or concentration left out as unconfirmed
[1] = target: T1, CCR2 (Homo sapiens, UniProt P41597); experiment: Figure S2a opioid peptide screen on chemokine receptors; format: cell-based
T1 construct: expressed in transfected cells
T1 sequence (P41597 1-360 isoform P41597-2): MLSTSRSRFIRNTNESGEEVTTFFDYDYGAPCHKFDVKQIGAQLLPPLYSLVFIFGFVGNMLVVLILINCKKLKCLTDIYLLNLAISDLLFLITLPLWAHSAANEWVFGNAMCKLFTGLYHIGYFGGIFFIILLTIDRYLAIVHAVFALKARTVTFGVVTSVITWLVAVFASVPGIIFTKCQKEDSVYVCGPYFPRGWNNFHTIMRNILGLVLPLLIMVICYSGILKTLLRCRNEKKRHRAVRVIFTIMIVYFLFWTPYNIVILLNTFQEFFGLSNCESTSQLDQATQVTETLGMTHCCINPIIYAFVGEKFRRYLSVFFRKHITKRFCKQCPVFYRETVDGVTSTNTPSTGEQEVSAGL

[2] = target: T2, CCR6 (Homo sapiens, UniProt P51684); experiment: as above; format: cell-based
T2 construct: expressed in transfected cells
T2 sequence (P51684 1-374): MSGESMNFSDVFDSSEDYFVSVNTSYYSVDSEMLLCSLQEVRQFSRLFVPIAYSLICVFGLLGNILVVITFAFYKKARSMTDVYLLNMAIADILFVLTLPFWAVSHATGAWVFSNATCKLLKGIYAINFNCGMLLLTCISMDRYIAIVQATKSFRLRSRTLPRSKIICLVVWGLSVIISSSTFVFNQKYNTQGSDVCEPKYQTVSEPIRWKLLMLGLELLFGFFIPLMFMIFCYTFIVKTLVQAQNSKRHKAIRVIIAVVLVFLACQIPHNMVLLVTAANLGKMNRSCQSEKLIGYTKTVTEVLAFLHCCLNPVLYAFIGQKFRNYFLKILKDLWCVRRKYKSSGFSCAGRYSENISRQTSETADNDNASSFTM

[3] = target: T3, CCR9 (Homo sapiens, UniProt P51686); experiment: as above; format: cell-based
T3 construct: expressed in transfected cells
T3 sequence (P51686 1-369): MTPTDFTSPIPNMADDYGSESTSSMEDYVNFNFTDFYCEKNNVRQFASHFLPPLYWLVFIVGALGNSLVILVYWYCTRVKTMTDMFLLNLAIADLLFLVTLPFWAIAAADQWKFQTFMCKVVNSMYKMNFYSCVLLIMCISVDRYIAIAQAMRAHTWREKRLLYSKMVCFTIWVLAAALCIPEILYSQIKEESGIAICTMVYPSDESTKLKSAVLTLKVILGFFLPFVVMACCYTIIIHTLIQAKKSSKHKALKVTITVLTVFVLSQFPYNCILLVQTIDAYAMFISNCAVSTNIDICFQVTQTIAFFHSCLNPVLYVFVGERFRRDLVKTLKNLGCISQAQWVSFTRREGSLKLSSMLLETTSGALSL

[4] = target: T4, CXCR3A (Homo sapiens, UniProt P49682); experiment: as above; format: cell-based
T4 construct: expressed in transfected cells; host or cells: U87 cells
T4 sequence (P49682 1-368): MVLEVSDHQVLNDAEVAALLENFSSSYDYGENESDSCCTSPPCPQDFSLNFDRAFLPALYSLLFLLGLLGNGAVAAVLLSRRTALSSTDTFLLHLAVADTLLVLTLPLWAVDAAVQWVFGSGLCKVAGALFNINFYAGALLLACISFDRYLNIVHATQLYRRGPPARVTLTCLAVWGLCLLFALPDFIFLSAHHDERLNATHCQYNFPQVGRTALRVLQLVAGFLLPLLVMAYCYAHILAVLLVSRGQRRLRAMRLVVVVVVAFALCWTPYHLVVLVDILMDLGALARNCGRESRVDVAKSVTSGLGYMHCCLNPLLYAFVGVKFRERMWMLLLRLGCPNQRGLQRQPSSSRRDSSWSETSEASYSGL

[5] = target: T5, CXCR6 (Homo sapiens, UniProt O00574); experiment: as above; format: cell-based
T5 construct: expressed in transfected cells
T5 sequence (O00574 whole entry): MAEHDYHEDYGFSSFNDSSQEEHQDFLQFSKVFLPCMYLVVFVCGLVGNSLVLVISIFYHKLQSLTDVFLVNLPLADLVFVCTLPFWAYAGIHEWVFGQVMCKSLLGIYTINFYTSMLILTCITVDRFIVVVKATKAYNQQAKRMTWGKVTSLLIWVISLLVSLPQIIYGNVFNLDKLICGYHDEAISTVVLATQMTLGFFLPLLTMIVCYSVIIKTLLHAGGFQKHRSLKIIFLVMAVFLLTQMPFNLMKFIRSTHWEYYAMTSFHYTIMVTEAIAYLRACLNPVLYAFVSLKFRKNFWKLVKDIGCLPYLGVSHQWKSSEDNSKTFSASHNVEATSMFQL

[6] = target: T6, XCR1 (Homo sapiens, UniProt P46094); experiment: as above; format: cell-based
T6 construct: expressed in transfected cells
T6 sequence (P46094 1-333): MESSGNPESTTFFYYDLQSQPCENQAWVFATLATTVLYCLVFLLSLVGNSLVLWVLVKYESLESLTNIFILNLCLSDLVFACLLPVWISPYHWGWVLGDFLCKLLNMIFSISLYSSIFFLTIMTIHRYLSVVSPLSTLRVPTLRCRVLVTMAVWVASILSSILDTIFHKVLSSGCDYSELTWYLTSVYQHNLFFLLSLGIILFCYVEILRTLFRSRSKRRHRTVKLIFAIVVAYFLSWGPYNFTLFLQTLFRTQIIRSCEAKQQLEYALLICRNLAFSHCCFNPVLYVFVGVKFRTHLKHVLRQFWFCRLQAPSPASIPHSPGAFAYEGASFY

[7] = target: ACKR3 (Homo sapiens, UniProt P25106); experiment: cell-based; conditions: read-out: ACKR3 activity, ctrl+ = 100, Figure S2a
ACKR3, sequence (P25106 whole entry): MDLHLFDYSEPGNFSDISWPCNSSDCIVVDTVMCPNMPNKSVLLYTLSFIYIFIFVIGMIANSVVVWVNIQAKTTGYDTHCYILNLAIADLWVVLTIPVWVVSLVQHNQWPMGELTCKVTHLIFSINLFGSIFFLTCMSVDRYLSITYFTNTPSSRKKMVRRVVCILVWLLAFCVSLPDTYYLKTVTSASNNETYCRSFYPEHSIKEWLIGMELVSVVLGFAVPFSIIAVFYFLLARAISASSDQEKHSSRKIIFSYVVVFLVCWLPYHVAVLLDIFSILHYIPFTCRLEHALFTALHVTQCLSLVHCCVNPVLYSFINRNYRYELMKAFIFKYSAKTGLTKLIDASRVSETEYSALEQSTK

[8] = replicate 1, read-out: CCR2 activity, ctrl+ = 100
[9] = replicate 2, read-out: CCR2 activity, ctrl+ = 100
[10] = replicate 3, read-out: CCR2 activity, ctrl+ = 100
[11] = replicate 1, read-out: CCR6 activity, ctrl+ = 100
[12] = replicate 2, read-out: CCR6 activity, ctrl+ = 100
[13] = replicate 3, read-out: CCR6 activity, ctrl+ = 100
[14] = replicate 1, read-out: CCR9 activity, ctrl+ = 100
[15] = replicate 2, read-out: CCR9 activity, ctrl+ = 100
[16] = replicate 3, read-out: CCR9 activity, ctrl+ = 100
[17] = replicate 1, read-out: CXCR3A activity, ctrl+ = 100
[18] = replicate 2, read-out: CXCR3A activity, ctrl+ = 100
[19] = replicate 3, read-out: CXCR3A activity, ctrl+ = 100
[20] = replicate 1, read-out: CXCR6 activity, ctrl+ = 100
[21] = replicate 2, read-out: CXCR6 activity, ctrl+ = 100
[22] = replicate 3, read-out: CXCR6 activity, ctrl+ = 100
[23] = replicate 1, read-out: XCR1 activity, ctrl+ = 100
[24] = replicate 2, read-out: XCR1 activity, ctrl+ = 100
[25] = replicate 3, read-out: XCR1 activity, ctrl+ = 100

Row | Compound | activation [1, 8] | activation [1, 9] | activation [1, 10] | activation [2, 11] | activation [2, 12] | activation [2, 13] | activation [3, 14] | activation [3, 15] | activation [3, 16] | activation [4, 17] | activation [4, 18] | activation [4, 19] | activation [5, 20] | activation [5, 21] | activation [5, 22] | activation [6, 23] | activation [6, 24] | activation [6, 25] | activation ([7]; replicate 1) | activation ([7]; replicate 2) | further results
1 | C[C@H](NC(=O)CNC(=O)[C@@H](NC(=O)[C@H](Cc1ccccc1)NC(=O)CNC(=O)CNC(=O)[C@@H](N)Cc1ccccc1)[C@@H](C)O)C(=O)N[C@@H](CCCNC(=N)N)C(=O)N[C@@H](CCCCN)C(=O)N[C@@H](CO)C(=O)N[C@@H](C)C(=O)N[C@@H](CCCNC(=N)N)C(=O)N[C@@H](CCCCN)C(N)=O [Nociceptin 1-13] | 0.793% | -0.93% | 1.52% | 0.552% | -0.975% | -0.351% | -3.6% | -1.89% | 2.5% | -0.431% | -4.46% | -5.38% | -0.349% | -0.882% | 2.41% | 2.91% | 3.06% | 4.45% | 19.7% | 20.3% | activation ([7]; replicate 3): 51.3%
2 | C[C@H](NC(=O)CNC(=O)[C@@H](NC(=O)[C@H](Cc1ccccc1)NC(=O)CNC(=O)CNC[C@@H](N)Cc1ccccc1)[C@@H](C)O)C(=O)N[C@@H](CCCNC(=N)N)C(=O)N[C@@H](CCCCN)C(=O)N[C@@H](CO)C(=O)N[C@@H](C)C(=O)N[C@@H](CCCNC(=N)N)C(=O)N[C@@H](CCCCN)C(N)=O [FG Nociceptin 1-13] (H-[X1]GFTGARKSARK-NH2) | -0.148% | -0.651% | 0.99% | 0.145% | -0.683% | 5.07% | -2.13% | 0.443% | 0.538% | 2.13% | -1.45% | -3.37% | -0.041% | 0.0677% | 0.612% | 0.7% | 1.1% | 16.8% | 61.5% | 58.4% | activation ([7]; replicate 3): 66%
3 | CC[C@H](C)[C@H](NC(=O)[C@H](CCCNC(=N)N)NC(=O)[C@H](CCCNC(=N)N)NC(=O)[C@H](CC(C)C)NC(=O)[C@H](Cc1ccccc1)NC(=O)CNC(=O)CN)C(=O)N[C@@H](CCCNC(=N)N)C(=O)N1CCC[C@H]1C(=O)N[C@@H](CCCCN)C(=O)N[C@@H](CC(C)C)C(=O)N[C@@H](CCCCN)C(=O)N[C@@H](Cc1c[nH]c2ccccc12)C(=O)N[C@@H](CC(=O)O)C(=O)N[C@@H](CC(N)=O)C(=O)N[C@@H](CCC(N)=O)C(=O)O [Dynorphin 2-17] | 0.747% | -1.44% |  | -0.438% | -1.06% |  | 1.95% | 0.179% |  | -4.16% | -10.2% |  | -0.523% | -1.13% |  | 3.87% | -3.46% |  | 72.7% | 26.1% | 
4 | CC[C@H](C)[C@H](NC(=O)[C@H](CCCNC(=N)N)NC(=O)[C@H](CCCNC(=N)N)NC(=O)[C@H](CC(C)C)NC(=O)[C@H](Cc1ccccc1)NC(=O)CNC(=O)CNC(=O)[C@@H](N)Cc1ccc(O)cc1)C(=O)N[C@@H](CCCNC(=N)N)C(=O)N1CCC[C@H]1C(=O)N[C@@H](CCCCN)C(=O)N[C@@H](CC(C)C)C(=O)N[C@@H](CCCCN)C(=O)O [Dynorphin 1-13] | -0.833% | -2.52% |  | -0.31% | -0.732% |  | -2.31% | -1.58% |  | -2.15% | -8.16% |  | 0.0731% | -1.13% |  | -1.76% | -0.309% |  | 136% | 52.9% | 
